# Key:
# Format in all cases: in vivo
# [1] = tested on: Abutilon theophrasti (ABUTH); test: Post-emergence Test (glasshouse, percentage damage to the plant); details: post-emergence spray, 1000 g/ha unless otherwise stated, evaluated after 13 days
# Method in brief: (§1)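 Percentage damage to the plant, assessed 13 days after application and scored 1–5 in 20% bands. Pots sown in standard soil received compound at 1000 g/ha unless otherwise stated, sprayed under 24/16 °C, 14 h light, 65% humidity.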
# [2] = tested on: Amaranthus retoflexus (AMARE); test: as above; details: post-emergence spray, 1000 g/ha unless otherwise stated, evaluated after 13 days
# Method in brief: as §1
# [3] = tested on: Echinochloa crus-galli (ECHCG); test: as above; details: post-emergence spray, 1000 g/ha unless otherwise stated, evaluated after 13 days
# Method in brief: as §1
# [4] = tested on: Ipomoea hederacea (IPOHE); test: as above; details: post-emergence spray, 1000 g/ha unless otherwise stated, evaluated after 13 days
# Method in brief: as §1
# [5] = tested on: Setaria faberi (SETFA); test: as above; details: post-emergence spray, 1000 g/ha unless otherwise stated, evaluated after 13 days
# Method in brief: as §1
# [6] = tested on: Zea mays (ZEAMX); test: as above; details: post-emergence spray, 1000 g/ha unless otherwise stated, evaluated after 13 days
# Method in brief: as §1
# [7] = tested on: Amaranthus retoflexus (AMARE); test: Pre-emergence Test (glasshouse, percentage damage to the plant); details: 1000 g/ha unless otherwise stated, five-point scale
# [8] = tested on: Setaria faberi (SETFA); test: as above; details: 1000 g/ha unless otherwise stated, five-point scale
# [9] = tested on: Echinochloa crus-galli (ECHCG); test: as above; details: 1000 g/ha unless otherwise stated, five-point scale
# [10] = tested on: Ipomoea hederacea (IPOHE); test: as above; details: 1000 g/ha unless otherwise stated, five-point scale
# [11] = tested on: Abutilon theophrasti (ABUTH); test: as above; details: 1000 g/ha unless otherwise stated, five-point scale
# [12] = tested on: Zea mays (ZEAMX); test: as above; details: 1000 g/ha unless otherwise stated, five-point scale
Structure (SMILES),"Post-emergence Test ABUTH, percentage damage to the plant (five-point scale) [1]","Post-emergence Test AMARE, percentage damage to the plant (five-point scale) [2]","Post-emergence Test ECHCG, percentage damage to the plant (five-point scale) [3]","Post-emergence Test IPOHE, percentage damage to the plant (five-point scale) [4]","Post-emergence Test SETFA, percentage damage to the plant (five-point scale) [5]","Post-emergence Test ZEAMX, percentage damage to the plant (five-point scale) [6]","percentage damage to the plant, AMARE [7]","percentage damage to the plant, SETFA [8]","percentage damage to the plant, ECHCG [9]","percentage damage to the plant, IPOHE [10]","percentage damage to the plant, ABUTH [11]","percentage damage to the plant, ZEAMX [12]"
"CCn1c(C)c(-c2cc(OC)cc(OC)c2)c(=O)c(C(=O)O)c1-c1ccc(Cl)c(Cl)c1 [Compound 70, 2-(3,4-dichlorophenyl)-5-(3,5-dimethoxyphenyl)-1-ethyl-6-methyl-4-oxo-pyridine-3-carboxylic acid]",2 (2=21-40%),1 (1=0-20%),2 (2=21-40%),1 (1=0-20%),3 (3=41-60%),2 (2=21-40%),1 (1=0-20%),3 (3=41-60%),1 (1=0-20%),1 (1=0-20%),1 (1=0-20%),1 (1=0-20%)
"CCn1c(C)c(-c2cc(F)cc(F)c2)c(=O)c(C(=O)O)c1-c1ccc(Cl)c(Cl)c1 [Compound 79, 2-(3,4-dichlorophenyl)-5-(3,5-difluorophenyl)-1-ethyl-6-methyl-4-oxo-pyridine-3-carboxylic acid]",2 (2=21-40%),1 (1=0-20%),1 (1=0-20%),2 (2=21-40%),2 (2=21-40%),1 (1=0-20%),3 (3=41-60%),5 (5=81-100%),1 (1=0-20%),2 (2=21-40%),3 (3=41-60%),2 (2=21-40%)
"CCn1c(C)c(-c2cc(C)cs2)c(=O)c(C(=O)O)c1-c1ccc(Cl)c(Cl)c1 [Compound 86, 2-(3,4-dichlorophenyl)-1-ethyl-6-methyl-5-(4-methyl-2-thienyl)-4-oxo-pyridine-3-carboxylic acid]",4 (4=61-80%),4 (4=61-80%),3 (3=41-60%),3 (3=41-60%),4 (4=61-80%),1 (1=0-20%),4 (4=61-80%),5 (5=81-100%),3 (3=41-60%),1 (1=0-20%),2 (2=21-40%),1 (1=0-20%)
"CCn1c(C)c(-c2ccc(C(F)(F)F)c(Cl)c2)c(=O)c(C(=O)O)c1-c1ccc(Cl)c(Cl)c1 [Compound 64, 5-[3-chloro-4-(trifluoromethyl)phenyl]-2-(3,4-dichlorophenyl)-1-ethyl-6-methyl-4-oxo-pyridine-3-carboxylic acid]",1 (1=0-20%),1 (1=0-20%),1 (1=0-20%),1 (1=0-20%),1 (1=0-20%),1 (1=0-20%),2 (2=21-40%),1 (1=0-20%),1 (1=0-20%),1 (1=0-20%),1 (1=0-20%),1 (1=0-20%)
"CCn1c(C)c(-c2ccc(Cl)cc2)c(=O)c(C(=O)O)c1-c1ccc(Cl)cn1 [Compound 131, 5-(4-chlorophenyl)-2-(5-chloro-2-pyridyl)-1-ethyl-6-methyl-4-oxo-pyridine-3-carboxylic acid]",1 (1=0-20%),1 (1=0-20%),0,1 (1=0-20%),3 (3=41-60%),2 (2=21-40%),0,0,0,0,0,0
"CCn1c(C)c(-c2cc(Cl)cc(C(F)(F)F)c2)c(=O)c(C(=O)O)c1-c1ccc(Cl)c(Cl)c1 [Compound 82, 5-[3-chloro-5-(trifluoromethyl)phenyl]-2-(3,4-dichlorophenyl)-1-ethyl-6-methyl-4-oxo-pyridine-3-carboxylic acid]",2 (2=21-40%),1 (1=0-20%),1 (1=0-20%),1 (1=0-20%),1 (1=0-20%),1 (1=0-20%),2 (2=21-40%),2 (2=21-40%),1 (1=0-20%),1 (1=0-20%),1 (1=0-20%),1 (1=0-20%)
"CCn1c(C)c(-c2cc(C)c(OC)c(C)c2)c(=O)c(C(=O)O)c1-c1ccc(Cl)c(Cl)c1 [Compound 71, 2-(3,4-dichlorophenyl)-1-ethyl-5-(4-methoxy-3,5-dimethyl-phenyl)-6-methyl-4-oxo-pyridine-3-carboxylic acid]",2 (2=21-40%),1 (1=0-20%),1 (1=0-20%),1 (1=0-20%),1 (1=0-20%),1 (1=0-20%),2 (2=21-40%),2 (2=21-40%),1 (1=0-20%),1 (1=0-20%),1 (1=0-20%),1 (1=0-20%)
"CCn1c(C)c(-c2ccc(C(F)(F)F)cc2)c(=O)c(C(=O)O)c1-c1ccc(Cl)c(Cl)n1 [Compound 151, 2-(5,6-dichloro-2-pyridyl)-1-ethyl-6-methyl-4-oxo-5-[4-(trifluoromethyl)phenyl] pyridine-3-carboxylic acid]",3 (3=41-60%),0,3 (3=41-60%),3 (3=41-60%),4 (4=61-80%),2 (2=21-40%),1 (1=0-20%),4 (4=61-80%),4 (4=61-80%),5 (5=81-100%),1 (1=0-20%),2 (2=21-40%)

# Reference: US12660819B2, “Herbicidal derivatives” (SYNGENTA CROP PROTECTION AG, priority 2020, dated 2026)
